# Measurements as given in patent US20240041764A1, “Sustained-Release Oral Fosamprenavir Formulation for Treatment of Reflux” (The Medical College of Wisconsin, Inc., priority 2022, published 2024).
# “Also recorded” adds a separate entry of the source.
# Tests used:
# [1] = molecular target: T1, porcine pepsin (Sus scrofa, UniProt P00791); assay: peptic activity assay, fluorescence polarization with casein-Alexa647; type: biochemical; conditions: for IC50 for pepsin: in vitro binding and inhibition assays, IC50 from kinetic traces
# T1 construct: purchased Worthington Biochemical Corporation
# Description: To examine whether HIV protease inhibitors bound and inhibited pepsin, we developed assays based on fluorescence polarization which measures size-dependent molecular rotation thereby permitting detection of degradation, association and dissociation events^80. A competitive binding assay was designed employing pepstatin, an inhibitor of sub-nanomolar affinity^81. Pepstatin-Alexa647 was synthesized by dissolving 1 mg pepstatin A (Sigma-Aldrich) in a 50:50 mixture of dimethylformamide (DMF) and dimethylsulfoxide (DMS) followed by the addition of N,N,N′,N′-Tetramethyl-O—(N-succinimidyl)uronium tetrafluoroborate (0.6 mg) and trimethylamine (10 μL) DMF. The mixture was stirred for 1 hour, after which 1 mg Alexa Fluor 647 Cadaverine, Disodium Salt (ThermoFisher Scientific) was added. After 2 hours, the solvents were evaporated under high vacuum (35° C.) and residue partially dissolved in 10% methanol and transferred onto a C18 cartridge (Waters Corporation, Milford, MA). Increasing percentages of methanol were used for the elution. […] An enzymatic inhibition assay was designed using casein substrate.^82 Bovine alpha casein (Sigma-Aldrich, St. Louis, MO) was labeled with Alexa Fluor 647 Carboxylic Acid, Succinimidyl Ester (ThermoFisher Scientific, Waltham, MA) as described.^82 Briefly, the two were combined at 2.5 ug/mg label to protein ratio in 0.1M sodium bicarbonate for 15 minutes and labeled casein was separated from unbound label in a Sephadex G-25 (Sigma-Aldrich) column comprised of 90×5 mm packed beads in a glass Pasteur pipette, eluted with dPBS pH7.4 (ThermoFisher Scientific). The fast-moving band (casein-bound fluorophore) was collected in ˜0.4 ml volume. Concentration of resultant probe (casein-Alexa647 in PBS-azide) was estimated via spectrophotometry using Beer's law (Implen Nanophotometer, Implen, Inc. Westlake Village, CA).
# Assays were optimized using ranges of 0.3-1000 μM unlabeled pepstatin, 100-500 nM pepstatin-Alexa647 or casein-Alexa647 probe, 0.003-3 U/μl porcine pepsin (Worthington Biochemical Corporation, Lakewood, NJ), and 5-37.5% DMSO (HIV protease inhibitor diluent) in 0.1 M HCl, pH 1 with 0.01% v/v Tween-20 in 20 μl volumes in 384-well black optical plates (Nunc, Roskilde, DK) and read on a BioTek Cytation 5 (BioTek Instruments, Winooski, VT) with far red FP filter cube (excitation/emission 620/680 nm). Unlabeled pepstatin dose-response curves were used to ensure that the assays were responsive to pepsin inhibition. […] Assays were performed twice with triplicate reactions read for five minutes and mean mP plotted against probe concentration (binding assay) or read at <2 minutes intervals over 30 minutes with mean mP of plotted over time (activity assay). Half maximal inhibitory concentration (IC50) of inhibitors were calculated from kinetic traces analyzed using an online tool (https://icekat.herokuapp.com/icekat)^83. mP was normalized to blank (absent inhibitor) to derive percent bound or activity.
# [2] = system: LPR mouse model (pepsin-mediated laryngeal damage); assay: in vivo LPR mouse model: mechanical injury plus laryngeal pepsin instillation, H&E histology; conditions: for protection against pepsin-mediated laryngeal damage (histology): 0.3 mg/ml pepsin pH7, 4 weeks
# From the text: Three replicate animals per treatment condition were anticipated to suffice for verification of reproducibility in each experiment without excessive use of animal life. The three mice were randomly allocated to treatment groups. No data were excluded from analysis.
# Six-week-old female Jackson A/J mice (Jackson Laboratory, Bar Harbor, ME) were fed D-62 powdered Wattenberg diet, 2 g/mouse/day^95 and allowed to acclimate for one week upon arrival prior to experiments. In accord with previously established methods for modeling aerodigestive tract damage attributed to GERD and LPR,^1,95-99 mechanical injury applied during the first two weeks of a four-week treatment course was used to predispose the laryngeal mucosa to chemical injury by pepsin/acid applied throughout the four weeks. […] Briefly, anesthetized mice were suspended by upper teeth on a slanted board under an operating microscope.
# In a preliminary experiment to validate the LPR mouse model (i.e. laryngeal damage by pepsin at neutral and acidic pH), 20 μl saline (solvent control) or 0.3 mg/ml pepsin at pH7.0 or 4.0 were provided to mice (n=3) by laryngeal instillation at 24, 48, and 72 hours after mechanical injury during weeks 1 and 2 (FIG. 6); laryngeal instillation without wounding (3 days/week) continued during weeks 3 and 4. […] Mice were sacrificed at conclusion of the fourth week.
# To test the protective effect of HIV protease inhibitors on pepsin-mediated damage in vivo, inhibitors were delivered by aerosol or gavage concurrently with wounding (days 2, 8) and solvent/pepsin instillation (days 3-5, 9-11, 16-18 and 23-25). Aerosol or gavage was provided on days 1-5, 8-12, 15-19, and 22-25, and mice sacrificed day 26. Mice were anesthetized with isoflurane (3% in 2.5LPM, 3-5 minutes prior to procedures) as opposed to Avertin due to frequency. […] Aerosol was generated as described^100. Briefly, a 10 ml suspension of drug in ethanol was placed in the baffle, such that the concentration would remain constant at the equilibrium solubility. Droplets of ethanol containing dissolved drug were generated by an ultrasonic atomizer (nominal frequency 1.7 MHz) and entrained by air at a flow rate of 0.5 LPM with a custom-built glass baffle (UMN Department of Chemistry Glass Shop). The aerosol cloud was then passed through a cylindrical drying column containing an annular ring of charcoal. The ethanol was removed and the emanating dry aerosol particles of pure drug were then directed into the exposure chamber. The mass deposited on filters was measured gravimetrically and total output rate (mg/min) was determined. The aerosol concentration (mass/volume of air) was calculated by dividing the total output rate by the air flow rate (0.5 LPM). The inhaled mass of drug (Minh) for each mouse was defined as Minh=[Aerosol]*RMV*t, where Aerosol is the aerosol concentration of drug, RMV is the respiratory minute volume of the mice (0.025 L/min), and t is the aerosol exposure time. […] Actual mass deposited was not determined but anticipated to be 10% of inhaled mass (the deposition fraction of […] aerosol particles in mice).
# Tissues were collected, fixed in paraformaldehyde, embedded in paraffin and 4 um sections stained with hematoxylin and eosin (H&E) via automated stainer. Slides were reviewed by a board-certified pathologist (JM) blinded to treatment groups.
# T1 sequence (P00791 60-385): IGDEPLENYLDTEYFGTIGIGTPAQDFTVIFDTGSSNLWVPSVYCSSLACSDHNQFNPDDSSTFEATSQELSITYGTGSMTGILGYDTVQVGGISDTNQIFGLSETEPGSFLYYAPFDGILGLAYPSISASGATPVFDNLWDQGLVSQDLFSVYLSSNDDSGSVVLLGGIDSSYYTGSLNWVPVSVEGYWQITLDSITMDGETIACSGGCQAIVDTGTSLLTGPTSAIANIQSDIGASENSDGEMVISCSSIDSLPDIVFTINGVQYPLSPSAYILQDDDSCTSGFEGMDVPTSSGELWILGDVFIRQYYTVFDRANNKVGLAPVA
structure (smiles),measurement,setting,value
"CC(C)CN(C[C@@H](O)[C@H](Cc1ccccc1)NC(=O)O[C@H]1CO[C@H]2OCC[C@H]21)S(=O)(=O)c1ccc(N)cc1 [darunavir, [(3aS,4R,6aR)-2,3,3a,4,5,6a-hexahydrofuro[2,3-b]furan-4-yl]N-[(2S,3R)-4-[(4-aminophenyl)sulfonyl-(2-methylpropyl)amino]-3-hydroxy-1-phenylbutan-2-yl]carbamate]",inhibited pepsin (peptic activity),"[1]; 200 nM probe, 0.01 U/μL pepsin, 5% DMSO, 0.1 M HCl pH 1",low micromolar
same,IC50 for pepsin,[1],low micromolar range
same,IC50 for pepsin,[1]; listed as Darunavir,lowest IC50
same,"laryngeal histology, drug with saline (solvent), no pepsin",[2]; aerosol,absent
same,protection against pepsin-mediated laryngeal damage (histology),"[2]; aerosol, inhaled mass 0.93 mg/kg/day fosamprenavir, 12 mg/kg/day darunavir",moderate protection against pepsin-mediated damage; also recorded: mild protection against pepsin-mediated damage
same,"laryngeal histology, drug with saline (solvent), no pepsin",[2]; gavage,Mild reactivity
same,protection against pepsin-mediated laryngeal damage (histology),"[2]; gavage, 20 mg/kg/day fosamprenavir (Lexiva), 8.6 mg/kg/day darunavir (Prezista)",obscured the ability to detect its effect on pepsin-mediated damage and not and appeared similar
same,"laryngeal histology, drug with saline (solvent), no pepsin","[2]; gavage, listed as Darunavir",mild reactivity (rare intraepithelial lymphocytes)
